# From US20060112446A1, “Transposon genes of rice, transformed plant and method of use” (priority 2001, published 2006)
# What was measured:
# [1] = tested on: transposon gene (430 bp, Sequence Number 1) in calli derived from Nihonbare seeds; test: PCR detection of deletion (transposition) of the nonautonomous transposon gene in seed-derived calli grown on 5-azacytidine medium (Example 5); type: cell-based, rice (Oryza sativa), cultivar Nihonbare
# Experimental: Seeds of Nihonbare were sterilized in 3% sodium hypochlorite solution for 15˜30 min, washed with sterilized water, inoculated on a 90×20 mm of Petri dish (Iwaki Co.) containing 20˜30 ml of media at the rate of 9 seeds per dish and subjected to induction culture under light for 24 h at 30° C. We used a solid medium consisting of 4 g of CHU (N6) BASAL SALT MIXTURE® (Sigma Co.), 1 ml of MS VITAMIN SOLUTION® (Sigma Co.), 2 mg of 2,4-dichloro-phenoxyacetic acid (Sigma Co.), 0.3 g of casamino acids (DIFCO), 0.1 g of myo-inositol (Sigma Co.), 2.878 g proline (Wako), 30 g of sucrose (Wako), 2 g of Gelrite® (Wako) in 1 L of medium.
# After several days, calli were started forming from scutellum inside rice seeds and changed to cream-colored ones with 5 mm length on the 10th day of culture. The creamy-colored calli with 5mm length were transplanted to growth media supplemented with 5-azacytidine (Sigma Co.) at either 0 mM, 0.01 mM, 0.03 mM, 0.05 mM, 0.1 mM or 0.3 mM, respectively, and subjected to growth culture under light for 24 h at 30° C. We used a solid medium consisting of 4 g of CHU (N6) BASAL SALT MIXTURE® (Sigma Co.), 1 ml of MS VITAMIN SOLUTION® (Sigma Co.), 2 mg of 2, 4-dichloro-phenoxyacetic acid (Sigma Co.), 0.3 g of casamino acids (DIFCO), 0.1 g of myo-inositol (Sigma Co.), 2.878 g proline (Wako), 30 g of sucrose (Wako), 2 g of GELRITE® (Wako) in 1 L of medium. […]
# [2] = tested on: transposon gene with the nucleotide sequence of Sequence Number 3 in scutellum-derived calli; test: PCR detection of deletion (transposition) of the autonomous transposon gene in scutellum-derived calli treated with 5-azacytidine (Example 9); type: cell-based, rice (Oryza sativa), cultivar Nihonbare; settings: for The frequency of deletion (calli with deletion/calli examined) / The frequency of deletion (percent): scutellum-derived Nihonbare calli, 2 weeks growth culture
# Experimental: In this example, we examined the transposition activity of the nucleotide sequence of Sequence Number 3 in anther-derived calli and in scutellum-derived calli treated with 5-azacytidine.
# Seeds of Nihonbare, a rice cultivar, were sterilized in3% sodium hypochlorite solution for 15˜30 min, washed with sterilized water, inoculated on a 90×20 mm of Petri dish (Iwaki Co.) with 20˜30 ml of media at the rate of 9 seeds per dish and subjected to induction culture under light for 24 h at 30° C. Used was a solid medium consisting of 4 g of CHU (N6) BASAL SALT MIXTURE® (Sigma Co.), 1 ml of MS VITAMIN SOLUTION® (Sigma Co.), 2 mg of 2,4-dichloro-phenoxyacetic acid (Sigma Co.), 0.3 g of casamino acids (DIFCO), 0.1 g of myo-inositol (Sigma Co.), 2.878 g proline (Wako), 30 g of sucrose (Wako), 2 g of GELRITE® (Wako) in 1 L of medium. On the 10th day of inductive culture, the calli derived from induced seeds were transferred to a growth medium supplemented with 5-azacytidine (Sigma) at 0 mM, 0.1 mM or 0.5 mM and were subjected to growth culture underlight for 24 h at 33° C. Used was a solid medium consisting of 4 g of CHU (N6) BASAL SALT MIXTURE® (Sigma Co.), 1 ml of MS VITAMIN SOLUTION® (Sigma Co.), 2 mg of 2,4-dichloro-phenoxyacetic acid (Sigma Co.), 0.3 g of casamino acids (DIFCO), 0.1 g of myo-inositol (Sigma Co.), 2.878 g proline (Wako), 30 g of sucrose (Wako), 2 g of GELRITE® (Wako) in 1 L of medium. DNA was extracted from calli derived from seeds in growth culture for two weeks by DNEASY PLANT MINI KIT® (Qiagen).
# To amplify the DNA region containing the transposon DNA by PCR, we used the oligonucleotides comprising the sequences of Sequence Numbers 26 and 27 as PCR primers. Each reaction mixture (100 μl) contained 200 ng of DNA, 2.5 units of TAKARA LA TAQ® (Takara Co.), 10 μl of 10× LA PCR bufferII, 6 µl of 25 mM MgCl2, 8 μl of dNTP Mixture (2.5mM each dNTP) and 100 pmol of primers. Each cycle of the polymerase reaction consisted of a denaturation step at 94° C. for 30 sec and an extension step at 68° C. for 12 min. This cycle was repeated 35 times. After the reaction, PCR products were separated on 0.8% LO3 AGAROSE® (Takara Co.) gel electrophoresis.
compound,measurement,setting,value
Nc1ncn([C@@H]2O[C@H](CO)[C@@H](O)[C@H]2O)c(=O)n1 [5-azacytidine],DNA bands in PCR of the region containing the transposon gene (approx. 300 bp band = transposon gene deleted),"[1]; seed-derived Nihonbare calli, 0.03 mM-0.3 mM 5-azacytidine in growth medium, 2 weeks growth culture",Two DNA bands of approximately 730 bp and 300 bp were observed
same,Induction of transposition of the transposon gene,"[1]; seed-derived calli, 5-azacytidine treatment",could be induced even for seed-derived calli
same,The frequency of deletion (calli with deletion/calli examined),[2]; 0.1 mM 5-azacytidine,2/8
same,The frequency of deletion (percent),[2]; 0.1 mM 5-azacytidine,(25%)
same,The frequency of deletion (calli with deletion/calli examined),[2]; 0.5 mM 5-azacytidine,7/8
same,The frequency of deletion (percent),[2]; 0.5 mM 5-azacytidine,(87.5%)
same,Transposition of the transposon gene of Sequence Number 3,[2]; scutellum-derived calli treated with 5-azacytidine,high frequency of transposition
